Laboratory results from ChEMBL document CHEMBL1157003, “'Novel alkyl side chain sulfone 1alpha,25-dihydroxyvitamin D3 analogs: a comparison of in vitro antiproliferative activities and in vivo calcemic activities'” (2009).
Active and inactive are the calls of the source. The calls are words filed in the database; no cut-off is given here.

Tests used:
[1] = system: Rattus norvegicus; test: Inhibition of calciuria in rat at 10 ug/kg, po administered qd for 1 week; assay type: functional, organism-based
[2] = system: Keratinocyte; test: Antiproliferative activity against mouse keratinocytes; assay type: functional, cell-based
[3] = Antiproliferative activity against mouse keratinocytes at 10 nM relative to calcitrol; assay type: functional, Keratinocyte

Row | Structure (SMILES) | inhibition [1] | Activity [2] | Ratio [3]
1 | C=C1/C(=C\C=C2/CCC[C@]3(C)[C@@H]([C@H](C)CCCC(C)(C)O)CC[C@@H]23)C[C@@H](O)C[C@@H]1O | Active |  | 
2 | C=C1/C(=C\C=C2/CCC[C@]3(C)C([C@H](C)CCCS(=O)(=O)C(C)C)=CC[C@@H]23)C[C@@H](O)C[C@@H]1O | Active | Active | 
3 | C=C1/C(=C\C=C2/CCC[C@]3(C)C([C@H](C)CCCS(=O)(=O)C(F)(F)F)=CC[C@@H]23)C[C@@H](O)C[C@@H]1O | Active |  | 2
4 | C=C1/C(=C\C=C2/CCC[C@]3(C)C([C@H](C)CCCS(C)(=O)=O)=CC[C@@H]23)C[C@@H](O)C[C@@H]1O | Active | Active | 
